Measured values reported in ChEMBL document CHEMBL5724806, “Unraveling interindividual differences and functional consequences of gut microbial metabolism of immunosuppressants” (2024).

Columns and labels:
Assay type in all cases: ADME
[1] = The drug is tested on Lactobacillus paracasei strain: ATCC27092 for biotransformation under microaerobic condition. The drug concentrations were measured over 6 timepoints collected between 0 and 12 hours of incubation by liquid-chromatography-coupled mass spectrometry (LC–MS); design: dose 5 uM, timepoint 0, 1.5, 3, 6, 9, 12 hours; conditions: lacticaseibacillus paracasei, 5 µM
[2] = (§1) The drug is tested on the gut metagenome community of A-07 with ENA study accession number: PRJEB31790 for biotransformation under anaerobic condition. The drug concentrations were measured over 7 timepoints collected between 0 and 12 hours of incubation by liquid-chromatography-coupled mass spectrometry (LC–MS); design: dose 5 uM, timepoint 0, 0.75, 1.5, 3, 6, 9, 12 hours; conditions: 5 µM
[3] = The drug is tested on Bifidobacterium adolescentis strain: DSM20083 for biotransformation under anaerobic condition. The drug concentrations were measured over 6 timepoints collected between 0 and 12 hours of incubation by liquid-chromatography-coupled mass spectrometry (LC–MS); design: dose 5 uM, timepoint 0, 1.5, 3, 6, 9, 12 hours; conditions: 5 µM
[4] = The drug is tested on Lactobacillus reuteri strain: DSM20016 for biotransformation under microaerobic condition. The drug concentrations were measured over 6 timepoints collected between 0 and 12 hours of incubation by liquid-chromatography-coupled mass spectrometry (LC–MS); design: dose 5 uM, timepoint 0, 1.5, 3, 6, 9, 12 hours; conditions: limosilactobacillus reuteri, 5 µM
[5] = The drug is tested on Escherichia coli strain: DSM27469 for biotransformation under microaerobic condition. The drug concentrations were measured over 6 timepoints collected between 0 and 12 hours of incubation by liquid-chromatography-coupled mass spectrometry (LC–MS); design: dose 5 uM, timepoint 0, 1.5, 3, 6, 9, 12 hours; conditions: 5 µM
[6] = as §1, with “T-03” for “A-07”; design: dose 5 uM, timepoint 0, 0.75, 1.5, 3, 6, 9, 12 hours; conditions: 5 µM
[7] = The drug is tested on Gemella morbillorum strain: DSM20572 for biotransformation under anaerobic condition. The drug concentrations were measured over 6 timepoints collected between 0 and 12 hours of incubation by liquid-chromatography-coupled mass spectrometry (LC–MS); design: dose 5 uM, timepoint 0, 1.5, 3, 6, 9, 12 hours; conditions: 5 µM
[8] = as §1, with “A-08” for “A-07”, “microaerobic” for “anaerobic”; design: dose 5 uM, timepoint 0, 0.75, 1.5, 3, 6, 9, 12 hours; conditions: 5 µM
[9] = The drug is tested on Streptococcus sanguinis strain: DSM20567 for biotransformation under anaerobic condition. The drug concentrations were measured over 6 timepoints collected between 0 and 12 hours of incubation by liquid-chromatography-coupled mass spectrometry (LC–MS); design: dose 5 uM, timepoint 0, 1.5, 3, 6, 9, 12 hours; conditions: 5 µM
[10] = as §1, with “P-02” for “A-07”; design: dose 5 uM, timepoint 0, 0.75, 1.5, 3, 6, 9, 12 hours; conditions: 5 µM
[11] = The drug is tested on Capnocytophaga ochracea strain: DSM7271 for biotransformation under anaerobic condition. The drug concentrations were measured over 6 timepoints collected between 0 and 12 hours of incubation by liquid-chromatography-coupled mass spectrometry (LC–MS); design: dose 5 uM, timepoint 0, 1.5, 3, 6, 9, 12 hours; conditions: 5 µM
[12] = The drug is tested on Streptococcus mitis strain: DSM12643 for biotransformation under microaerobic condition. The drug concentrations were measured over 6 timepoints collected between 0 and 12 hours of incubation by liquid-chromatography-coupled mass spectrometry (LC–MS); design: dose 5 uM, timepoint 0, 1.5, 3, 6, 9, 12 hours; conditions: 5 µM
[13] = as §1, with “P-01” for “A-07”; design: dose 5 uM, timepoint 0, 0.75, 1.5, 3, 6, 9, 12 hours; conditions: 5 µM
[14] = The drug is tested on Faecalibacterium prausnitzii strain: DSM17677 for biotransformation under anaerobic condition. The drug concentrations were measured over 6 timepoints collected between 0 and 12 hours of incubation by liquid-chromatography-coupled mass spectrometry (LC–MS); design: dose 5 uM, timepoint 0, 1.5, 3, 6, 9, 12 hours; conditions: faecalibacterium duncaniae, 5 µM
[15] = as §1, with “A-06” for “A-07”, “microaerobic” for “anaerobic”; design: dose 5 uM, timepoint 0, 0.75, 1.5, 3, 6, 9, 12 hours; conditions: 5 µM
[16] = as §1, with “T-02” for “A-07”; design: dose 5 uM, timepoint 0, 0.75, 1.5, 3, 6, 9, 12 hours; conditions: 5 µM
[17] = The drug is tested on Lactobacillus paracasei strain: ATCC27092 for biotransformation under anaerobic condition. The drug concentrations were measured over 6 timepoints collected between 0 and 12 hours of incubation by liquid-chromatography-coupled mass spectrometry (LC–MS); design: dose 5 uM, timepoint 0, 1.5, 3, 6, 9, 12 hours; conditions: lacticaseibacillus paracasei, 5 µM
[18] = The drug is tested on Lactobacillus reuteri strain: DSM20016 for biotransformation under anaerobic condition. The drug concentrations were measured over 6 timepoints collected between 0 and 12 hours of incubation by liquid-chromatography-coupled mass spectrometry (LC–MS); design: dose 5 uM, timepoint 0, 1.5, 3, 6, 9, 12 hours; conditions: limosilactobacillus reuteri, 5 µM
[19] = as §1, with “A-01” for “A-07”; design: dose 5 uM, timepoint 0, 0.75, 1.5, 3, 6, 9, 12 hours; conditions: 5 µM
[20] = as §1, with “A-05” for “A-07”; design: dose 5 uM, timepoint 0, 0.75, 1.5, 3, 6, 9, 12 hours; conditions: 5 µM
[21] = The drug is tested on Actinomyces graevenitzii strain: DSM15540 for biotransformation under microaerobic condition. The drug concentrations were measured over 6 timepoints collected between 0 and 12 hours of incubation by liquid-chromatography-coupled mass spectrometry (LC–MS); design: dose 5 uM, timepoint 0, 1.5, 3, 6, 9, 12 hours; conditions: 5 µM
[22] = as §1, with “A-02” for “A-07”; design: dose 5 uM, timepoint 0, 0.75, 1.5, 3, 6, 9, 12 hours; conditions: 5 µM
[23] = as §1, with “T-02” for “A-07”, “microaerobic” for “anaerobic”; design: dose 5 uM, timepoint 0, 0.75, 1.5, 3, 6, 9, 12 hours; conditions: 5 µM
[24] = The drug is tested on Actinomyces naeslundi strain: DSM43013 for biotransformation under microaerobic condition. The drug concentrations were measured over 6 timepoints collected between 0 and 12 hours of incubation by liquid-chromatography-coupled mass spectrometry (LC–MS); design: dose 5 uM, timepoint 0, 1.5, 3, 6, 9, 12 hours; conditions: actinomyces naeslundii, 5 µM
[25] = as §1, with “A-01” for “A-07”, “microaerobic” for “anaerobic”; design: dose 5 uM, timepoint 0, 0.75, 1.5, 3, 6, 9, 12 hours; conditions: 5 µM
[26] = The drug is tested on Streptococcus anginosus strain: DSM20563 for biotransformation under microaerobic condition. The drug concentrations were measured over 6 timepoints collected between 0 and 12 hours of incubation by liquid-chromatography-coupled mass spectrometry (LC–MS); design: dose 5 uM, timepoint 0, 1.5, 3, 6, 9, 12 hours; conditions: 5 µM
[27] = as §1, with “P-04” for “A-07”; design: dose 5 uM, timepoint 0, 0.75, 1.5, 3, 6, 9, 12 hours; conditions: 5 µM
[28] = as §1, with “T-05” for “A-07”, “microaerobic” for “anaerobic”; design: dose 5 uM, timepoint 0, 0.75, 1.5, 3, 6, 9, 12 hours; conditions: 5 µM
[29] = as §1, with “A-05” for “A-07”, “microaerobic” for “anaerobic”; design: dose 5 uM, timepoint 0, 0.75, 1.5, 3, 6, 9, 12 hours; conditions: 5 µM
[30] = The drug is tested on Streptococcus salivarius strain: DSM20560 for biotransformation under anaerobic condition. The drug concentrations were measured over 6 timepoints collected between 0 and 12 hours of incubation by liquid-chromatography-coupled mass spectrometry (LC–MS); design: dose 5 uM, timepoint 0, 1.5, 3, 6, 9, 12 hours; conditions: 5 µM
[31] = The drug is tested on Lactobacillus gasseri strain: DSM20243 for biotransformation under anaerobic condition. The drug concentrations were measured over 6 timepoints collected between 0 and 12 hours of incubation by liquid-chromatography-coupled mass spectrometry (LC–MS); design: dose 5 uM, timepoint 0, 1.5, 3, 6, 9, 12 hours; conditions: 5 µM

Row | Structure (SMILES) | Bacterial Biotransformation [1] | Bacterial Biotransformation [2] | Bacterial Biotransformation [3] | Bacterial Biotransformation [4] | Bacterial Biotransformation [5] | Bacterial Biotransformation [6] | Bacterial Biotransformation [7] | Bacterial Biotransformation [8] | Bacterial Biotransformation [9] | Bacterial Biotransformation [10] | Bacterial Biotransformation [11] | Bacterial Biotransformation [12] | Bacterial Biotransformation [13] | Bacterial Biotransformation [14] | Bacterial Biotransformation [15] | Bacterial Biotransformation [16] | Bacterial Biotransformation [17] | Bacterial Biotransformation [18] | Bacterial Biotransformation [19] | Bacterial Biotransformation [20] | other results
1 | COc1c(C)c2c(c(O)c1C/C=C(\C)CCC(=O)O)C(=O)OC2 [MYCOPHENOLIC ACID] | Compound NOT metabolized | Compound NOT metabolized | Compound NOT metabolized | Compound NOT metabolized | Compound NOT metabolized | Compound NOT metabolized | Compound NOT metabolized | Compound NOT metabolized | Compound NOT metabolized | Compound NOT metabolized | Compound NOT metabolized | Compound NOT metabolized | Compound NOT metabolized | Compound NOT metabolized | Compound NOT metabolized | Compound NOT metabolized | Compound NOT metabolized | Compound NOT metabolized | Compound NOT metabolized | Compound NOT metabolized | Bacterial Biotransformation [21]: Compound NOT metabolized; Bacterial Biotransformation [22]: Compound NOT metabolized; Bacterial Biotransformation [23]: Compound NOT metabolized; Bacterial Biotransformation [24]: Compound NOT metabolized; Bacterial Biotransformation [25]: Compound NOT metabolized; Bacterial Biotransformation [26]: Compound NOT metabolized; Bacterial Biotransformation [27]: Compound NOT metabolized; Bacterial Biotransformation [28]: Compound metabolized; Bacterial Biotransformation [29]: Compound NOT metabolized; Bacterial Biotransformation [30]: Compound NOT metabolized; Bacterial Biotransformation [31]: Compound NOT metabolized
2 | CCC(C)(C)C(=O)O[C@H]1C[C@@H](C)C=C2C=C[C@H](C)[C@H](CC[C@@H]3C[C@@H](O)CC(=O)O3)[C@H]21 [SIMVASTATIN] | Compound NOT metabolized | Compound NOT metabolized | Compound NOT metabolized | Compound NOT metabolized | Compound NOT metabolized | Compound NOT metabolized | Compound NOT metabolized | Compound NOT metabolized | Compound NOT metabolized | Compound NOT metabolized | Compound NOT metabolized | Compound NOT metabolized | Compound NOT metabolized | Compound NOT metabolized | Compound NOT metabolized | Compound NOT metabolized | Compound NOT metabolized | Compound NOT metabolized | Compound NOT metabolized | Compound NOT metabolized | Bacterial Biotransformation [21]: Compound NOT metabolized; Bacterial Biotransformation [22]: Compound metabolized; Bacterial Biotransformation [23]: Compound NOT metabolized; Bacterial Biotransformation [24]: Compound NOT metabolized; Bacterial Biotransformation [25]: Compound NOT metabolized; Bacterial Biotransformation [26]: Compound NOT metabolized; Bacterial Biotransformation [27]: Compound NOT metabolized; Bacterial Biotransformation [28]: Compound NOT metabolized; Bacterial Biotransformation [29]: Compound NOT metabolized; Bacterial Biotransformation [30]: Compound NOT metabolized; Bacterial Biotransformation [31]: Compound NOT metabolized
